Measured values published in patent publication US8697081B2, “Method of modulating neovascularization” (The Regents of the University of Michigan, priority 2008, dated 2014).

Tests used:
Format in all cases: cell-based
[1] = test system: Human umbilical vein endothelial cells; assay: Nuclear architecture (GFP-lamin A, emerin) and nuclear pore complex (NUP153) distribution; settings: 3-D culture, VEGF/HGF-stimulated, blebbistatin or nocodazole
Source text: (§1) At sites of tissue damage, inflammation or neoplasia, fibrinogen is converted into a 3-D meshwork of fibrin fibrils that serve as a structural support for endothelial cells undergoing neovascularization (Chun et al. 2006. Cell, 125: 577-591; Hiraoka et al. 1998. Cell, 95: 365-377; Schafer and Werner. 2008. Nat. Rev. Mol. Cell Biol., 9: 628-638; Zhou et al. 2008. Genes Dev., 22: 1231-1243). This process can be recapitulated in vitro by embedding serum-supplemented human endothelial cells within a 3-D fibrin gel in the presence of the pro-angiogenic factors, VEGF and HGF. Human umbilical vein endothelial cells were isolated from umbilical cords by perfusion of the umbilical vein with type 3 collagenase (Worthington, Lakewood, N.J.) and cultured in Medium-199 (Invitrogen, Carlsbad, Calif.) with 20% human serum and 50 μg/ml endothelial cell growth supplement (ECGS; BD Biosciences, Franklin Lakes, N.J.). For 3-D culture, endothelial cells were suspended in a solution of thrombin and aprotinin (Sigma, St. Louis, Mo.) and mixed 1:1 with a solution of 6 mg/ml fibrinogen (Calbiochem, Gibbstown, N.J.). Vasculogenesis was triggered by treatment with 100 ng/ml VEGF, 50 ng/ml HGF (Genentech, San Francisco, Calif.). Fibronectin fibrillogenesis was tracked in 3-D by co-culture with human fibronectin (Sigma) labeled with Alexa-594 (Invitrogen).
As the 3-D-specific requirements for MT-MMPs and fibronectin matrix assembly correlate with changes in endothelial cell morphology, efforts were initiated to identify mechanistic routes whereby cell shape changes impact cell function. In particular, the impact of ECM remodeling on nuclear architecture was investigated. Nuclear architecture was tracked by either transfecting cells with a GFP-tagged form of the nuclear matrix filament, lamin A, or by immunostaining for the integral nuclear membrane protein, emerin (Dahl et al., 2008. Circ. Res., 102: 1307-1318; Glynn and Glover, 2005. Hum. Mol. Genet., 14: 2959-2969; Starr, 2009. J. Cell Sci., 122: 577-586; Stewart et al., 2007. Science, 318: 1408-1412). Under 2-D conditions, endothelial cell nuclei assumed an ellipsoid shape when cultured atop fibrin gels in the absence or presence of VEGF/HGF. In marked contrast, under 3-D conditions, endothelial cells cultured within fibrin gels in the absence of VEGF/HGF unexpectedly display a distorted morphology with multiple lamin A matrix and emerin infoldings and surface irregularities. Upon addition of VEGF/HGF, however, the nuclei of fibrin-embedded endothelial cells undergo a dramatic, and 3-D-specific, remodeling to assume a more classic, ovoid morphology. Three-dimensional reconstructions of DAPI-stained nuclei confirm that nuclear architecture transitions between multi-lobed and smooth elliptical shapes in the absence or presence, respectively, of VEGF/HGF.
Nuclear matrix architecture controls the distribution of the nuclear pore complexes that regulate the trafficking of protein and RNA across the nuclear envelope (Goldman et al., 2004. Proc. Natl. Acad. Sci. USA, 101: 8963-8968; Hawryluk-Gara et al., 2005. Mol. Biol. Cell, 16: 2382-2394; Liu et al., 2007. J. Cell. Biol., 178: 785-798). As such, the localization of nuclear pores was assessed in intact cells by monitoring the localization of the component protein, NUP153. In 3-D culture, unstimulated endothelial cells accumulate NUP153-containing pore complexes at nuclear membrane invaginations. In contrast, the nuclei of VEGF/HGF-stimulated endothelial cells display a uniform distribution of pore complexes in nuclear membranes.
To determine the roles of MMP-dependent proteolysis and fibronectin matrix assembly in mediating nuclear shape and nuclear pore complex changes, fibrin-embedded endothelial cells were stimulated with VEGF/HGF in the presence of FUD or GM6001. […]

[2] = test system: Human umbilical vein endothelial cells; assay: Chromatin organization (GFP-H2B, H3K9me3) and histone H3/H4 acetylation; settings: 3-D culture, VEGF/HGF-stimulated, blebbistatin or nocodazole
Source text: as §1
Yet, multi-lobed nuclei and anomalous nuclear pore complex distributions can be observed in laminopathies, a pleiotropic series of genetic disorders wherein mutations in lamin or emerin impact chromatin organization, histone modifications, and transcriptional activity (Csoka et al., 2004. Aging Cell, 3: 235-243; Dechat et al., 2008. Genes Dev, 22: 832-853; Dillon, 2008. Dev Cell, 15: 182-186; Malhas et al., 2007. J. Cell Biol., 176: 593-603; Mendjan et al., 2006. Mol. Cell, 21: 811-823; Shumaker et al., 2006. Proc. Natl. Acad. Sci. USA, 103: 8703-8708; Tang et al., 2008. J. Cell Sci., 121: 1014-1024). To determine whether VEGF/HGF-dependent changes in nuclear shape similarly affect chromatin structure/function, chromatin packaging was tracked at the single-endothelial cell level by monitoring GFP-tagged histone H2B or pericentromeric constitutive heterochromatin localization. […] heterochromatin localization was visualized by immunostaining for trimethylated lysine 9 of histone H3 (H3K9me3) (Shumaker, supra; Tang, supra).
Histone acetylation can be regulated by chromatin positioning within the nucleus (Finlan et al., 2008. PLoS Genet, 4: e1000039; Somech et al., 2005. J. Cell Sci., 118: 4017-4025). Thus, the acetylation status of histones H3 and H4 was assessed as functional markers of changes in chromatin organization. […]

[3] = test system: Human umbilical vein endothelial cells; assay: Cytoskeletal organization (F-actin, β-tubulin, vimentin) and isometric tension/contractile force; settings: 3-D culture, VEGF/HGF-stimulated, blebbistatin or nocodazole
[4] = test system: Human umbilical vein endothelial cells; assay: VEGF/HGF-triggered vasculogenesis in 3-D fibrin gel, or growth in 2-D culture; settings: 3-D culture, VEGF/HGF-stimulated, blebbistatin or nocodazole
Source text: as §1
In the presence of VEGF and HGF, endothelial cells i) underwent marked changes in cell morphology from spherical to elongated, ii) mobilized proteinases which degrade the surrounding fibrin, iii) assembled a pericellular meshwork of fibronectin fibrils, and iv) initiated proliferative and tubulogenic responses that result in the formation of an anastomosing network of neovessels over a 6 day culture period (Hiraoka, supra; Saunders et al., 2006. J Cell Biol. 175: 179-191; Zhou et al., 2008. Proc. Natl. Acad. Sci. USA, 97: 4052-4057). […] Cell, 125: 757-767; Saunders et al., supra; Tomasini-Johansson et al., 2001. J. Biol. Chem., 276: 23430-23439; Zhou et al, supra). Endothelial cells cultured atop—rather than embedded within—fibrin gels (herein referred to as 2-D culture) display distinct growth requirements from those observed in 3-D culture.
Taken together, cytoskeletal reorganization and contractile tension may serve as the biomechanical effectors that transmit structural and mechanical cues from the pericellular ECM to the nuclear envelope. VEGF/HGF-stimulated endothelial cells were treated with either (a) blebbistatin to inhibit myosin ATPase function, or (b) nocodazole to prevent microtubule assembly under 3-D culture conditions (Salpingidou et al., 2007. J. Cell Biol., 178: 897-904; Zhou et al., supra).

human endothelial cells [5] = assay: F-actin cytoskeletal organization, activated β1 integrin and vinculin distribution (phalloidin, confocal); settings: 3-D fibrin gel, 2 days, FUD or Del29 peptide
Procedure: To further study the effects of Fn matrix inhibition, additional cytological processes associated with angiogenesis were examined. Endothelial cells were cultured within 3-D or 2-D fibrin gels in the presence of the FUD or Del 29 peptides for 2 days. F-actin cytoskeletal organization was monitored following staining with Alexa 488-conjugated phalloidin. Cells also were stained with an antibody against activated β1 integrin or transfected with a GFP-tagged vinculin expression vector (pRK-vinculin-EGFP) to study distribution. Following counterstaining with Alexa 594-labeled phalloidin, fluorescence was monitored by confocal laser microscopy.
In the absence of Fn fibrillogenesis, an impaired ability of embedded endothelial cells to generate myosin-dependent forces and increase cytoplasmic stiffness was predicted to affect both Fn unfolding, as well as the ability of the cells to properly register the mechanical properties of the surrounding substratum (Wu et al. 1995. Cell, 83(5): 715-724; Zhong et al. 1998. J. Cell Biol., 141(2): 539-551; Baneyx et al. 2002. Proc. Natl. Acad. Sci. USA, 99(8): 5139-5143; Discher et al. 2005. Science, 310(5751): 1139-1143; Engler, supra; and Yoneda, supra). As such, the rheologic and functional characteristics of endothelial cells were assessed in the presence of the specific myosin ATPase inhibitor, blebbistatin. […]

human endothelial cells [6] = assay: Fn matrix assembly by endothelial cells in 3-D fibrin gel, confocal laser microscopy; settings: growth factor cocktail, FUD or Del29 250 nM, L8 or 9D2 100 μg/ml, 70 kDa Fn fragment 75 μg/ml
Procedure: Endothelial cells were isolated from human umbilical cord veins by collagenase digestion and cultured in Medium 199 (Gibco) containing 20% human serum, 50 μg/ml endothelial cell growth supplement (BD Biosciences), 100 U/ml penicillin, and 100 μg/ml streptomycin (Hiraoka et al. 1998. Cell, 95(3): 365-377). For 2-D/3-D culture, endothelial cell monolayers (no later than third passage) were suspended by mild trypsinization and dispersed within or plated atop fibrin (3 mg/ml) or collagen (2.2 mg/ml) gels (prepared as described in Hiraoka, supra, and Hotary et al. 2003. Cell, 114(1): 33-45), and stimulated with a cocktail of growth factors including 100 ng/ml human vascular endothelial growth factor (Genentech), 50 ng/ml human hepatocyte growth factor (Genentech), 10 ng/ml human TGFα (Biosource), 0.5 ng/ml TGFβ1 (R and D Systems), and 100 μg/ml heparin (Sigma). In selected experiments, endothelial cell spheroids were prepared and suspended in 3-D fibrin gels.
The effect of Fn matrix assembly, or lack thereof, on endothelial cell function during neovascularization was assessed. Human serum was depleted of Fn by gelatin-sepharose affinity chromatography (Amersham) and supplemented with either 20 μg/ml of human plasma Fn (Sigma) or FITC-labeled Fn. […]
(Chernousov et al. 1991. J. Biol. Chem., 266(17): 10851-10858; Tomasini-Johansson et al. 2001. J. Biol. Chem., 276(26): 23430-23439; Mao and Schwarzbauer. 2005. Matrix Biol., 24(6): 389-399; and Tomasini-Johansson et al. 2006. Matrix Biol., 25(5): 282-293). […] Cell number in 3-D cultures was determined by hemacytometry after dissolving gels with 2 mg/ml bacterial collagenase (Worthington) while the number of patent tubules was determined in randomly selected cross-sections. Fn matrix assembly and cell morphology were monitored by confocal laser microscopy. To examine cell migration, endothelial cells were embedded in a 100 μl fibrin gel for 2 hours, then placed within a 500 μl gel for 8 days in the presence of Del29, FUD, control IgG, or L8, after which migration from the inner gel was assessed. […]

Molecule	nuclear shape and nuclear pore distribution [1]	chromatin distribution [2]	levels of acetylated histones H3 and H4 [2]	contractile force exerted on the 3-D ECM [3]	endothelial cell 3-D tubulogenesis [4]	stress fiber formation (F-actin phalloidin staining) (human endothelial cells [5])	Fn matrix assembly (Fn polymerization) (human endothelial cells [6])
COC(=O)Nc1nc2ccc(C(=O)c3cccs3)cc2[nH]1 [nocodazole]	multi-lobed nuclei with perturbations in nuclear pore distribution	chromatin condensations at the nuclear periphery with increased interchromatin space	decreased levels	impairing	completely inhibit	–	–
Del29: control peptide wherein FUD residue 29 is deleted to abrogate Fn binding (KDQSPLAGESGETEYITEVYGNQQNPVDDKKLPNETGFSGNMVETEDT)	–	–	–	–	–	well-organized stress fibers	did not negatively impact
